{
  "source": "patent US20240041889A1",
  "about": "“COMBINATION THERAPY WITH ADENOSINE RECEPTOR ANTAGONISTS” (Teon Therapeutics, Inc., priority 2020, published 2024)",
  "key": {"CT26 tumor": {"system": "CT26 tumor", "test": "Combination with anti-PD-1 in a CT26 model", "type": "in vivo, Balb/C mice", "details": "intraperitoneally for 16 days", "procedure": "Methods: Balb/C inbred female mice, aged at 8-9 week, were purchased from Charles River. On the day of inoculation (Day 0), CT26 cells were harvested, washed and counted. Cells were re-suspended as single cell solution in PBS at a concentration of 5×10^6 cells/mL at the final step. Immediately, five hundred thousand (5×10^5) of CT26 cells suspended in 0.1 mL PBS were injected in the right flank of Balb/C mice subcutaneously using 27G needles. When palpable, tumors were measured by a caliper and tumor volume (mm^3) were calculated by length×width×height×0.5236. Mice with the tumor size approximate to 100 mm^3 were randomly assigned into one of four groups (n=10). Each group received vehicle (BID), A2B antagonist Compound 1 at 3 mg/kg (BID), mouse anti-PD-1 (RMP1-14) at 5 mg/kg (Q2D), or Compound 1 (3 mg/kg)+RMP1-14 (5 mg/kg) intraperitoneally for 16 days. Tumor size and body weight were determined every 2-3 days."}, "B16F10 tumor": {"system": "B16F10 tumor", "test": "Combination with anti-PD-1 in a B16F10 model", "type": "in vivo, C57BL/6 mice", "details": "intraperitoneally for 7 days", "procedure": "Methods: C57BL/6 inbred female mice, aged at 8-9 week, were purchased from Charles River. On the day of inoculation (Day 0), B16F10 cells were harvested, washed and counted. Cells were re-suspended as single cell solution in PBS at a concentration of 5×10^6 cells/mL at the final step. Immediately, five hundred thousand (5×10^5) of B16F10 cells suspended in 0.1 mL PBS were injected in the right flank of C57BL/6 mice subcutaneously using 27G needles. When palpable, tumors were measured by a caliper and tumor volumes (mm^3) were calculated by length×width×height×0.5236. Mice with the tumor size approximate to 100 mm^3 were randomly assigned into one of four groups (n=10). Each group received vehicle (BID), A2B antagonist Compound 1 at 1 mg/kg (BID), mouse anti-PD-1 (RMP1-14) at 10 mg/kg (Q3D), or Compound 1 (1 mg/kg)+RMP1-14 (10 mg/kg) intraperitoneally for 7 days. Tumor size and body weight were determined every 2-3 days."}, "[1]": {"system": "tumor-infiltrating immune cells", "test": "Mechanistic study in a MC38 model, FACS analysis of tumor tissue", "type": "in vivo, C57BL/6 mice", "details": "6 days after drug treatment", "procedure": "Methods: C57BL/6 inbred female mice, aged at 6-8 week, were purchased from Shanghai Lingchang Biotechnology Co., Ltd. On the day of inoculation (Day 0), MC38 cells were harvested, washed and counted. Cells were re-suspended as single cell solution in PBS at a concentration of 1×10^6 cells/mL at the final step. Immediately, […] (1×10^5) of MC38 cells suspended in 0.1 mL PBS were injected in the right flank of C57BL/6 mice subcutaneously using 27G needles. When palpable, tumors were measured by a caliper and tumor volume (mm^3) were calculated by length×width×height×0.5236. Mice with the tumor size approximately to 80-100 mm^3 were randomly assigned into one of four groups (n=8). Each group received vehicle (BID), A2B antagonist Compound 1 at 3 mg/kg (BID), mouse anti-PD-1 (RMP1-14) at 10 mg/kg (Q3D), or Compound 1 (3 mg/kg)+RMP1-14 (10 mg/kg) intraperitoneally. Tumor tissues were collected 6 days after drug treatment and made single cell suspension for FACS analysis to detect tumor-infiltrating immune cells."}, "MC38 tumor model": {"system": "MC38 tumor model", "test": "Fibrosis in a MC38 tumor model", "type": "in vivo"}},
  "data": [
    {"smiles": "CCCn1c(=O)c2[nH]c(-c3cnn(Cc4cccc(C(F)(F)F)c4)c3)nc2n(CC)c1=O", "note": "[Compound 1, 8-(1-(3-(Trifluoromethyl)benzyl)-1H-pyrazol-4-yl)-3-ethyl-1-propyl-1H-purine-2,6(3H,7H)-dione]", "values": [
      {"measurement": "effect on mouse body weight", "setting": "CT26 tumor; CT26 model", "result": "no significant effect"},
      {"measurement": "maximal CT26 tumor growth inhibition (TGI)", "setting": "CT26 tumor; Compound 1 3 mg/kg BID, RMP1-14 5 mg/kg Q2D, alone or combined", "result": 47.5, "unit": "%"},
      {"measurement": "effect on mouse body weight", "setting": "B16F10 tumor; B16F10 model", "result": "no effect"},
      {"measurement": "maximal B16F10 tumor growth inhibition (TGI)", "setting": "B16F10 tumor; Compound 1 1 mg/kg BID, RMP1-14 10 mg/kg Q3D, alone or combined", "result": 48.7, "unit": "%"},
      {"measurement": "increase of the amount of dendritic cells (DCs)", "setting": "[1]; Compound 1 3 mg/kg BID i.p.", "result": 34, "unit": "%"},
      {"measurement": "reduction of the amount of myeloid-derived suppressor cells (MDSCs)", "setting": "[1]; Compound 1 3 mg/kg BID i.p.", "result": 41, "unit": "%"},
      {"measurement": "reduction of the amount of regulatory T cells (Tregs)", "setting": "[1]; Compound 1 3 mg/kg BID i.p.", "result": 28, "unit": "%"},
      {"measurement": "increase of the amount of CD8+ T cells", "setting": "[1]; Compound 1 3 mg/kg BID, RMP1-14 10 mg/kg Q3D, alone or combined, i.p.", "result": 58, "unit": "%"},
      {"measurement": "increase of the amount of CD4+ T cells", "setting": "[1]; Compound 1 3 mg/kg BID, RMP1-14 10 mg/kg Q3D, i.p.", "result": 84, "unit": "%"},
      {"measurement": "fibrosis", "setting": "MC38 tumor model", "result": "reduces fibrosis"}
    ]}
  ]
}
